Source: US9133103B2, “N-substituted benzenepropanamide and benzenepropenamide for use in the prevention or the treatment of affective disorders” (Novaremed, Ltd., priority 2011, dated 2015)

Assays:
Type in all cases: in vivo
Balb/c mice [1] = experiment: Open field test (exploratory locomotor activity); settings: 0.1 or 5 mg/kg oral, subchronic; for time spent in zones 2 and 3: in comparison to control mice, FIG. 1F; for locomotor activity (distance moved, velocity, strong mobility and immobility): recorded over 20 minutes, in comparison to the control mice, FIG. 1A-1D
Experimental: This method is one of the most popular in evaluation of animals' behaviour. It tests both motility parameters and anxiety (Prut et al). An individual mouse is placed in a novel plexiglass arena of 50×50 cm the floor of which is divided into 3 digital zones. The outer peripheral zone 1, the medial zone 2 and the most central zone 3. The animal behaviour in the open field is recorded by videotaping for 20 min and analyzed subsequently digitally using Noldus software for animal behaviour. The measurements include general motility: distance moved, velocity and strong mobility, as well as anxiety parameters including frequency of visits to the central area, time spent in the inner field, and number of rearing events in the centre. The more the animal stays and performs in the centre, it is less anxious.
40, 9 week old naïve male Balb/c mice were divided in 5 groups (8 mice in each group) and treated daily (0 min, p.o.) for two weeks, as follows: • 1. Control—0.5% DMSO 0.3 ml/mouse, po (3 ml/10 mice) (15 μl DMSO+2994 μl DDW), n=8. • 2. Diclofenac 10 mg/Kg=0.3 mg/0.3 ml/mouse, i.p. (3 ml/10 mice), n=8 • 3. 135S 0.5 mg/Kg=0.015 mg/0.3 ml/mouse, po (3 ml/10 mice) (135S 0.15 mg (Stock 50 mg/1 ml DMSO) 3 μl+2997 μl DDW), n=8 • 4. 135S 2.5 mg/kg=0.075 mg/0.3 ml/mouse, po (3 ml/10 mice) ([…] 0.75 mg (Stock 50 mg/1 ml DMSO) 15 μl+2985 μl DDW), n=8 • 5. 135S 0.1 mg/Kg=0.003 mg/0.3 ml/mouse, po (3 ml/10 mice) (135S […] (Stock 50 mg/1 ml DMSO) 0.6 μl+2999.4 μl DDW), n=8
Fifteen days after treatment, the five groups of mice listed above were subjected to the open field test for […]. The activity of the mice was assessed by an EthoVision video track system (Noldus Ltd.) A centre zone (“zone 3”; approximately 16% of the total area), a border area (“zone 1”; an 8 cm wide border around the edge of the arena) and an intermediate zone (“zone 2”; the remaining area) were defined. Quantitative parameters, such as the distance travelled and average speed, were recorded for the centre zone and the entire arena.
An Open Field test measures activity in a novel environment and can be used to assess a combination of locomotor activity, exploratory drive, neophobia, agoraphobia and other aspects of anxiety or fear in mice, as well as motor function. Treatment using a 0.1 mg/kg or 5 mg/kg dose of 135S or 175S compound was compared to the effect of treatment with a control substance (DMSO) or Diclofenac. The mice were placed in the centre of the arena and their activity and behaviour was recorded over a period of 20 minutes in respect of the distance moved (cm), velocity (cm/s), strong mobility and immobility. The ratio of total duration between the inner zones 2 and 3 in comparison to the outer zone 1 was recorded. The total duration in the inner zones 2 and 3 was also determined.

Balb/c mice [2] = experiment: Forced swim test
Text: This is one of the most widely used tools for screening antidepressant activity preclinically in an acute test and was first described by Porsolt et al (1977). The test is based on the observation that rats and mice develop an immobile posture when placed in an inescapable cylinder of water. This behavior is considered to be a behavioural despair as opposed to an active form of coping with stressful conditions. An antidepressant will reduce immobility and increase motivated behaviour of the rodent to escape from the despaired conditions. This is evidenced by increase in time of swimming, distance moved, velocity and attempts to climb the walls (strong mobility). FST is considered a good screen tool with good reliability and predictive validity.
The test in male mice (Balb/c Harlan IL) was conducted after 4 days of drug administration (90 min post last drug administration). Round glass cylinders 18 cm diameter and 20 cm depth were used. Water temperature was 24-28° C. Motivated behaviour was defined by immobility, swimming and strong mobility. Immobility in the animals was defined by activity lower than 10% movement of the centre of gravity of the animal. Swimming was defined by the distance and the velocity of the animal, and climbing was related to strong mobility (movement of centre of gravity more than 30%). Animals were dropped to the cylinder for 6 min and scoring was performed in the last 4 min after 2 min of adaptation. All results were analyzed by the Noldus (Holland) system including a camera and software for animal behaviour analyses.
Mice were treated with compound 135S at three different concentrations (0.1 mg/kg, 0.5 mg/kg and 2.5 mg/kg), or with the anti-depressant Fluoxetine (10 mg/kg) administered orally in a daily dose for 14 days. The forced swim test was performed on […].
In a first trial, the mice were placed in a tank of water, from which they could not escape. The mobility and immobility of the mice was monitored. In a second trial, the same mice were placed back into the tank. The mobility and immobility of the mice was again monitored.

Balb/c mice [3] = experiment: Elevated plus maze; settings: 0.1, 0.5, 2.5 mg/kg p.o., test on day 8, 15 minutes, in comparison to control mice
Experimental: This model uses the natural fear of rodents to avoid open and elevated places. The apparatus consists of a plus-maze with two enclosed and two opposite open arms, elevated above the floor. […] This is one of the most widely used models to study effects of anxiety-like behaviour. The maze consisted of two opposing open arms (40×10 cm) and two opposing closed arms (40×10 cm, with 40 cm walls) on a platform 50 cm above the ground.
The groups of mice were treated as in Example 2 and an elevated plus maze test was carried out on day 8. This test was used as a further test of the anxiolytic effect of the drugs of the invention.
The mice were placed in the centre of the maze facing an open arm and were allowed to freely explore the maze for 15 minutes. During this time, their behaviour was observed.

Balb/c mice [4] = experiment: Marble burying test; settings: 0.1, 0.5 and 2.5 mg/kg p.o., test on day 15, 20 glass marbles, 20 minutes; against control mice; FIG. 4
Experimental: The marble burying test is a useful model of neophobia, anxiety and obsessive-compulsive behaviour. It has also been proposed that the test may have predictive validity for the screening of novel antidepressants, anxiolytics and antipsychotics. Mice can be expected to bury roughly 75% of the marbles in a 30 min period, although it varies with strain and gender. In this study, male Balb/c mice were used.
The groups of mice were treated as in Example 2 and a marble burying test was carried out on day 15. The mice were placed individually into a cage containing 20 glass marbles and exposed for 20 minutes. The number of marbles buried by the mice was monitored. […] This test provides further evidence of the anxiolytic properties of this compound, in particular with respect to treatment of obsessive compulsive disorder (OCD).

[5] = 0.1, 0.5 and 2.5 mg/kg oral, in comparison to control mice, FIG. 2A-2C

| SMILES | time spent in zones 2 and 3 (Balb/c mice [1]) | locomotor activity (distance moved, velocity, strong mobility and immobility) (Balb/c mice [1]) | immobility (Balb/c mice [2]; [5]) | mobility (Balb/c mice [2]; [5]) | anti-depressant effect compared with Fluoxetine (Balb/c mice [2]; 135S 0.1, 0.5 and 2.5 mg/kg against Fluoxetine 10 mg/kg, oral) | exploration of the maze (Balb/c mice [3]; FIG. 3A-3D) | time spent within the open arms (Balb/c mice [3]; FIG. 3B) | number of marbles buried (Balb/c mice [4]) |
| --- | --- | --- | --- | --- | --- | --- | --- | --- |
| CC(O)COCC(Cc1ccc(O)cc1)NC(=O)CCc1ccccc1 (stereo not shown) [Compound 135S] | significant increase | did not show a significant effect | decrease | increase | greater than that resulting from treatment of mice with the common anti-depressant drug Fluoxetine | increased exploration of the maze | increased time spent within the open arms | significantly less marbles than control mice |
| O=C(CCc1ccccc1)NC(COCCO)Cc1ccc(O)cc1 (stereo not shown) [Compound 175S] | significant increase | did not show a significant effect | – | – | – | – | – | – |
